# Measurements as given in article PMC11474946, “Role of DNA Double-Strand Break Formation in Gyrase Inhibitor-Mediated Killing of Nonreplicating Persistent Mycobacterium tuberculosis in Caseum” (ACS Infectious Diseases, 2024).
# Target: T1, M. tuberculosis gyrase (MTB DNA gyrase) (Mycobacterium tuberculosis, UniProt P9WG45+P9WG47)
# T1 construct: gene gyrA
# Assay: DNA supercoiling inhibition, relaxed pBR322, agarose gel
# Assay type: biochemical
# Conditions: not given
# T1 sequence (P9WG47 2-838): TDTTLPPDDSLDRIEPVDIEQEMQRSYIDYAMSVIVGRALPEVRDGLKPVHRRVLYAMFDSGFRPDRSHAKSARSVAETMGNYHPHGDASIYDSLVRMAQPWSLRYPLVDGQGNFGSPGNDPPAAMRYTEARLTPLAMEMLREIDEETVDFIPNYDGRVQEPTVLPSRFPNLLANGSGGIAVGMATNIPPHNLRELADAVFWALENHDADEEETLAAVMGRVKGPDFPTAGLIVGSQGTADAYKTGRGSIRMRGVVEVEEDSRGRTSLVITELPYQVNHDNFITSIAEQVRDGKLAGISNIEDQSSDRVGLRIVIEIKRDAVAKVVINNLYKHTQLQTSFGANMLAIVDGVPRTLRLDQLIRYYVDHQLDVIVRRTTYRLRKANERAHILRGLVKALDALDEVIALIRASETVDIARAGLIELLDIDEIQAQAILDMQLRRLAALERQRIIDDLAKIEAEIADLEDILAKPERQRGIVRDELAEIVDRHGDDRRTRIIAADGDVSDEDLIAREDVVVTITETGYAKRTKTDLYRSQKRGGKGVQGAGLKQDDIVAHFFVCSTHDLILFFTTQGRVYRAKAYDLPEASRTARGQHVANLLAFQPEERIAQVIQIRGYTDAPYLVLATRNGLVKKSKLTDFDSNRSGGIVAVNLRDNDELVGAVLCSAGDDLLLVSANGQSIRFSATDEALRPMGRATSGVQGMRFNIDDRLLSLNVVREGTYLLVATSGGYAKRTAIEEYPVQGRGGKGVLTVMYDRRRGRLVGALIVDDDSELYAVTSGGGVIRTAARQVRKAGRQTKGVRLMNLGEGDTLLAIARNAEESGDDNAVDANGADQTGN
# T1 sequence (P9WG45 whole entry): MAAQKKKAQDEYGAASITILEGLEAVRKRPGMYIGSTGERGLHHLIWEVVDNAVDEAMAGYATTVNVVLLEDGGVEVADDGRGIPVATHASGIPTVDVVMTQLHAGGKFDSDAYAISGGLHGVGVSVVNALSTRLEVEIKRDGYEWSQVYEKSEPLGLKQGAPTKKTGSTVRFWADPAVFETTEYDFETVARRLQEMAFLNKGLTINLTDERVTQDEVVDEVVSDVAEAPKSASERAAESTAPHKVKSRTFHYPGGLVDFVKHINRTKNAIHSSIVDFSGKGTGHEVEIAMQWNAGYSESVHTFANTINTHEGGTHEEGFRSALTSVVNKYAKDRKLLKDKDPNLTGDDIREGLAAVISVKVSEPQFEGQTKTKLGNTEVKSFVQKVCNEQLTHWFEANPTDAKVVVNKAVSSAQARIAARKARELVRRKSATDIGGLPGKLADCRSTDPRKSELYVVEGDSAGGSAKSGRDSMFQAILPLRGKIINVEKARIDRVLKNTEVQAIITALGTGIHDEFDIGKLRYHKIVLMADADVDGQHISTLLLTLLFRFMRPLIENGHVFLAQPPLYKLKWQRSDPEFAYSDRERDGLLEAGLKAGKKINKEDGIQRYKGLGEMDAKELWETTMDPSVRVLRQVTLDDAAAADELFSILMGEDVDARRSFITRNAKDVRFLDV
row,Molecule,EC50
1,Nc1nc(-n2cc(C(=O)O)c(=O)c3cc(F)c(N4CC(O)C4)c(Cl)c32)c(F)cc1F [Delafloxacin],23000 nM
2,COc1c(N2CCNC(C)C2)c(F)cc2c(=O)c(C(=O)O)cn(C3CC3)c12 (stereo not drawn) [Gatifloxacin],5000 nM
3,C[C@H]1COc2c(N3CCN(C)CC3)c(F)cc3c(=O)c(C(=O)O)cn1c23 [Levofloxacin],10000 nM
4,CCNC(=O)Nc1nc2cc(-c3cnc(C(C)(C)O)nc3)c(F)c([C@H]3CCCO3)c2[nH]1 [SPR719],300 nM
5,N[C@@H]1CN(c2c(F)cc3c(=O)c(C(=O)O)cn([C@@H]4C[C@@H]4F)c3c2Cl)CC12CC2 [Sitafloxacin],1000 nM

# Same assay, conditions: 37 °C, 30 min, relaxed pBR322
row,Molecule,EC50
1,EC/11716,100 nM
